Experimental data published in PubChem BioAssay AID1918940 (Molecular Pharmacology Branch, DTP, NCI, 2023).

Test system: NCI-H211 complex spheroid viability
Assay: Anticancer human tumor NCI-H211 cell line growth inhibition [LSD1];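 note: luminescent viability read after seven days of drug exposure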;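 for viability, T/C: 100% = DMSO vehicle control viability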
Conditions: for IC50: curve of first compound; for viability, T/C: stronger effect = lower value
Procedure, shortened: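 Multicellular complex spheroids of tumor cells with human endothelial cells (HUVEC) and mesenchymal stem cells; the LSD1 inhibitor iadademstat was combined with standard-of-care or investigational agents. Top concentration at or near clinical Cmax, half-log dilutions; final DMSO ≤0.25%.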

O=C(C=Cc1cccc(S(=O)(=O)Nc2ccccc2)c1)NO + NC1CCC(NC2CC2c2ccccc2)CC1
IC50 (second compound 0.1 µM): < 9.49 nM
IC50 (second compound 0.316 µM): < 9.49 nM
IC50 (second compound 1 µM): < 9.49 nM
IC50 (second compound 3.16 µM): < 9.49 nM
IC50 (second compound 10 µM): < 9.49 nM
viability, T/C (second compound 0.1 µM, first compound 0.00949 µM): 15.1%
viability, T/C (second compound 0.1 µM, first compound 0.03 µM): 3.51%
viability, T/C (second compound 0.1 µM, first compound 0.0949 µM): 2.43%
viability, T/C (second compound 0.1 µM, first compound 0.3 µM): 1.81%
viability, T/C (second compound 0.1 µM, first compound 0.949 µM): 0.5%
viability, T/C (second compound 0.1 µM, first compound 3 µM): 0.09%
viability, T/C (second compound 0.316 µM, first compound 0.00949 µM): 18.4%
viability, T/C (second compound 0.316 µM, first compound 0.03 µM): 3.02%
viability, T/C (second compound 0.316 µM, first compound 0.0949 µM): 8.25%
viability, T/C (second compound 0.316 µM, first compound 0.3 µM): 1.92%
viability, T/C (second compound 0.316 µM, first compound 0.949 µM): 1.26%
viability, T/C (second compound 0.316 µM, first compound 3 µM): 0.1%
viability, T/C (second compound 1 µM, first compound 0.00949 µM): 17.3%
viability, T/C (second compound 1 µM, first compound 0.03 µM): 3.31%
viability, T/C (second compound 1 µM, first compound 0.0949 µM): 4.77%
viability, T/C (second compound 1 µM, first compound 0.3 µM): 1.92%
viability, T/C (second compound 1 µM, first compound 0.949 µM): 3.19%
viability, T/C (second compound 1 µM, first compound 3 µM): 5.1%
viability, T/C (second compound 3.16 µM, first compound 0.00949 µM): 11.6%
viability, T/C (second compound 3.16 µM, first compound 0.03 µM): 2.91%
viability, T/C (second compound 3.16 µM, first compound 0.0949 µM): 4.81%
viability, T/C (second compound 3.16 µM, first compound 0.3 µM): 2.66%
viability, T/C (second compound 3.16 µM, first compound 0.949 µM): 0.27%
viability, T/C (second compound 3.16 µM, first compound 3 µM): 0.1%
viability, T/C (second compound 10 µM, first compound 0.00949 µM): 9.56%
viability, T/C (second compound 10 µM, first compound 0.03 µM): 2.44%
viability, T/C (second compound 10 µM, first compound 0.0949 µM): 2.03%
viability, T/C (second compound 10 µM, first compound 0.3 µM): 1.32%
viability, T/C (second compound 10 µM, first compound 0.949 µM): 0.15%
viability, T/C (second compound 10 µM, first compound 3 µM): 0.17%
